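Where inhibition never reached the appropriate level, the endpoint shown equals the highest concentration tested. Otherwise, values were interpolated linearly from a five-concentration, 48-hour dose response in 96-well plates. GI50: concentration for 50% inhibition of growth.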 Calls of active or inactive are those of the source. Rule as the data show it: active = GI50 up to about 1.1 µM and inactive = higher.
Key:
Test in all cases: NCI anticancer screen, dose series, 48 h
M14 = system: M14
A498 = system: A498
RXF 393 = system: RXF 393
TK-10 = system: TK-10
NCI-H226 = system: NCI-H226
IGROV-1 = system: IGROV-1
MDA-MB-231 = system: MDA-MB-231
786-0 = system: 786-0
PC-3 = system: PC-3
CCRF-CEM = system: CCRF-CEM
SK-MEL-2 = system: SK-MEL-2
NCI/ADR-RES = system: NCI/ADR-RES
NCI-H460 = system: NCI-H460
HOP-92 = system: HOP-92
UACC-257 = system: UACC-257
SNB-75 = system: SNB-75
OVCAR-8 = system: OVCAR-8
COLO 205 = system: COLO 205
HT-29 = system: HT-29
Hs-578T = system: Hs-578T

Structure (SMILES) | GI50 (M14) | GI50 (A498) | GI50 (RXF 393) | GI50 (TK-10) | GI50 (NCI-H226) | GI50 (IGROV-1) | GI50 (MDA-MB-231) | GI50 (786-0) | GI50 (PC-3) | GI50 (CCRF-CEM) | GI50 (SK-MEL-2) | GI50 (NCI/ADR-RES) | GI50 (NCI-H460) | GI50 (HOP-92) | GI50 (UACC-257) | GI50 (SNB-75) | GI50 (OVCAR-8) | GI50 (COLO 205) | GI50 (HT-29) | GI50 (Hs-578T)
CCOC(=O)/C=C\C(C#N)(C#N)/N=C/c1ccsc1 | 3.08 µM (inactive) | 19 µM (inactive) | 2.26 µM (inactive) | 2.1 µM (inactive) | 14.8 µM (inactive) | 14.5 µM (inactive) | 16.3 µM (inactive) | 2.24 µM (inactive) | 8.99 µM (inactive) | 0.207 µM (active) | 17.7 µM (inactive) | 3.84 µM (inactive) | 20.5 µM (inactive) | 2.05 µM (inactive) | 6.81 µM (inactive) | 13 µM (inactive) | 3.86 µM (inactive) | 1.9 µM (inactive) | 11.1 µM (inactive) | 19.5 µM (inactive)
CC(C)OP(=O)(OC(C)C)/C(C#N)=C/c1ccco1 | > 100 µM (inactive) | > 100 µM (inactive) | > 100 µM (inactive) | > 100 µM (inactive) | > 100 µM (inactive) | > 100 µM (inactive) | > 100 µM (inactive) | > 100 µM (inactive) | > 100 µM (inactive) | > 100 µM (inactive) | > 100 µM (inactive) | > 100 µM (inactive) | > 100 µM (inactive) | > 100 µM (inactive) | > 100 µM (inactive) | > 100 µM (inactive) | > 100 µM (inactive) | > 100 µM (inactive) | > 100 µM (inactive) | > 100 µM (inactive)
COC(=O)c1c(O)ccc2c1c1c(n2Cc2cc(OC)cc(OC)c2)C(=O)c2ccccc2C1=O | 8.13 µM (inactive) | 54.2 µM (inactive) | 8.32 µM (inactive) | 13 µM (inactive) | 14.7 µM (inactive) | 5.06 µM (inactive) | 7.13 µM (inactive) | 7.74 µM (inactive) | 4.39 µM (inactive) | 3.7 µM (inactive) | 10.9 µM (inactive) | 4.06 µM (inactive) | 3.75 µM (inactive) | 4.92 µM (inactive) | 23.9 µM (inactive) | 14.1 µM (inactive) | 3.72 µM (inactive) | 1.86 µM (inactive) | 2.44 µM (inactive) | 7.55 µM (inactive)
Nc1nc(N)c2c(n1)NC(c1ccccc1)CC(/C=C/c1ccc(Cl)cc1)=N2 (stereo not given) | 11.6 µM (inactive) | 15.4 µM (inactive) | 3.62 µM (inactive) | 2.56 µM (inactive) | 6.64 µM (inactive) | 2.72 µM (inactive) | 3.23 µM (inactive) | 3.11 µM (inactive) | 6.59 µM (inactive) | 4.84 µM (inactive) | 14.6 µM (inactive) | 3.15 µM (inactive) | 4.41 µM (inactive) | 3.94 µM (inactive) | 2.25 µM (inactive) | 18.5 µM (inactive) | 5.28 µM (inactive) | 2.7 µM (inactive) | 3.95 µM (inactive) | 2.95 µM (inactive)
COC1=CC(=O)c2c(c(-c3nc(C)cs3)cn2C)C1=O | 2.13 µM (inactive) | 5.82 µM (inactive) | 20.4 µM (inactive) | 10.8 µM (inactive) | 16.7 µM (inactive) | 4.29 µM (inactive) | 15.7 µM (inactive) | 18.1 µM (inactive) | 5.96 µM (inactive) | 4.5 µM (inactive) | 3.03 µM (inactive) | 4 µM (inactive) | 1.25 µM (inactive) | 14.9 µM (inactive) | 1.82 µM (inactive) | 1.75 µM (inactive) | 4.56 µM (inactive) | 12.4 µM (inactive) | 4.98 µM (inactive) | 2.21 µM (inactive)
COc1cc2cc(C(=O)N3CC(CCl)c4c3cc(NC(=O)C(C)(C)c3ccccc3[N+](=O)[O-])c3ccccc43)[nH]c2c(OC)c1OC (stereo not given) | 1.75 µM (inactive) | 0.78 µM (active) | 1.42 µM (inactive) | 8.87 µM (inactive) | 5.14 µM (inactive) | 1.35 µM (inactive) | 3.03 µM (inactive) | 1.36 µM (inactive) | 1.16 µM (inactive) | 0.13 µM (active) | 6.93 µM (inactive) | 1.12 µM (active) | 0.158 µM (active) | 2.38 µM (inactive) | 6.65 µM (inactive) | 3.76 µM (inactive) | 0.951 µM (active) | 5.43 µM (inactive) | 1.6 µM (inactive) | 9.33 µM (inactive)
O=C1OC(c2ccccc2)=N/C1=C\c1ccc(F)cc1 | > 100 µM (inactive) | > 100 µM (inactive) | > 100 µM (inactive) | > 100 µM (inactive) | 35.6 µM (inactive) | 71.3 µM (inactive) | > 100 µM (inactive) | > 100 µM (inactive) | > 100 µM (inactive) | 35.8 µM (inactive) | > 100 µM (inactive) | 46.6 µM (inactive) | > 100 µM (inactive) | > 100 µM (inactive) | > 100 µM (inactive) | > 100 µM (inactive) | 47 µM (inactive) | > 100 µM (inactive) | > 100 µM (inactive) | > 100 µM (inactive)
CCOc1ccc(NC2=CC(=O)C(=O)c3ccccc32)cc1 | 1.75 µM (inactive) | 3.61 µM (inactive) | 5.87 µM (inactive) | 8.32 µM (inactive) | 4.86 µM (inactive) | 4.29 µM (inactive) | 12.1 µM (inactive) | 3.78 µM (inactive) | 3.12 µM (inactive) | 9.48 µM (inactive) | 4.31 µM (inactive) | 2.83 µM (inactive) | 2.47 µM (inactive) | 9.48 µM (inactive) | 1.63 µM (inactive) | 2.35 µM (inactive) | 4.33 µM (inactive) | 3.64 µM (inactive) | 5.35 µM (inactive) | 2.37 µM (inactive)
NCc1nnn(Cc2ccccc2)c1N | > 100 µM (inactive) | > 100 µM (inactive) | > 100 µM (inactive) | > 100 µM (inactive) | > 100 µM (inactive) | > 100 µM (inactive) | > 100 µM (inactive) | > 100 µM (inactive) | > 100 µM (inactive) | > 100 µM (inactive) | > 100 µM (inactive) | > 100 µM (inactive) | > 100 µM (inactive) | > 100 µM (inactive) | > 100 µM (inactive) | > 100 µM (inactive) | > 100 µM (inactive) | > 100 µM (inactive) | > 100 µM (inactive) | > 100 µM (inactive)
O=C1CC(c2ccccc2Cl)Oc2ccccc21 (stereo not given) | 25.9 µM (inactive) | > 100 µM (inactive) | 17.2 µM (inactive) | 98.6 µM (inactive) | 3.84 µM (inactive) | 21.4 µM (inactive) | 26.9 µM (inactive) | 29 µM (inactive) | 31.3 µM (inactive) | 33.9 µM (inactive) | 19.9 µM (inactive) | 13.1 µM (inactive) | 28.8 µM (inactive) | 25 µM (inactive) | > 100 µM (inactive) | 22.7 µM (inactive) | 26.4 µM (inactive) | 25.4 µM (inactive) | 10.8 µM (inactive) | 26.3 µM (inactive)

From ChEMBL document CHEMBL1201862, “PubChem BioAssay data set” (2004)
